Tests used:
Assay type in all cases: in vivo
[1] = system: Echinochloa crus-galli (ECHCG); experiment: Herbicidal pre-emergence action, section C (Table C3); conditions: visual grading after ca. 3 weeks vs untreated controls; for pre-emergence activity against ECHCG in %: application rate 320 g/ha
Summary of the method: (§1)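 Seeds sown in sandy loam and covered with soil; compounds formulated as WP or EC were sprayed onto the covering soil as aqueous suspension/emulsion with 0.5% additive at 600 l water/ha. Pots kept in greenhouse under optimum conditions; damage graded visually after ca. 3 weeks versus untreated controls (0–100%).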

Lolium rigidum (LOLRI) = experiment: Herbicidal pre-emergence action, section C (Table C5); conditions: application rate 320 g/ha, visual grading after ca. 3 weeks; for pest or weed control at 320 g/ha: Lolium rigidum, pre-emergence, 504 h, read-out: pre-emergence activity against LOLRI in %
Description: Seeds of mono- and dicotyledonous weed plants and crop plants were sown, in plastic or organic planting pots, in sandy loam and covered with soil. The compounds according to the invention, formulated in the form of wettable powders (WP) or as emulsifiable concentrates (EC), were applied to the surface of the covering soil as aqueous suspension or emulsion, with the addition of 0.5% of an additive, at an application rate of 600 l of water/ha (converted). Following treatment, the pots were placed in a greenhouse and kept under optimum growth conditions for the test plants. The visual grading of the damage to the test plants was carried out after ca. 3 weeks in comparison to untreated controls (herbicidal effect in percent (%): 100% effect=plants have died off, 0% effect=as control plants).

Setaria viridis (SETVI) [2] = experiment: Herbicidal pre-emergence action, section C (Table C8); conditions: visual grading after ca. 3 weeks; for pest or weed control at 320 g/ha: Setaria viridis, pre-emergence, 504 h, read-out: pre-emergence activity against SETVI in %
Summary of the method: as §1

[3] = system: Amaranthus retroflexus (AMARE); experiment: Herbicidal post-emergence action, section E (Table E3); conditions: Amaranthus retroflexus, post-emergence, 504 h; application rate 320 g/ha; assessed visually after ca. 3 weeks; read-out: post-emergence activity against AMARE in %
Description: (§2) Seeds of mono- and dicotyledonous weed plants and crop plants were sown, in plastic or organic planting pots, in sandy loam, covered with soil and grown in a greenhouse under controlled growth conditions. 2 to 3 weeks after sowing, the test plants were sprayed in the single-leaf stage. The compounds according to the invention, formulated in form of wettable powders (WP) or as emulsifiable concentrates (EC), were sprayed onto the green plant parts as aqueous suspension or emulsion, with the addition of 0.5% of an additive, at an application rate of 600 l of water/ha (converted). The test plants were placed in the greenhouse for ca. 3 weeks under optimum growth conditions, and then the effect of the preparations was assessed visually in comparison with untreated controls (herbicidal effect in percent (%): 100% effect=plants have died off, 0% effect=as control plants).

Zea mays (ZEAMX) = experiment: Post-emergence effects on crop plants, section F (Table F1); conditions: application rate 320 g/ha; for percent crop plant damage (phytotoxicity) on Zea mays, post-emergence at 320 g/ha: 504 h, read-out: post-emergence activity against ZEAMX in %; for post-emergence activity against ZEAMX in %: crop plant damage
Summary of the method: (§3)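 Crop seeds were sown in sandy loam in pots and greenhouse-grown; at the single-leaf stage, 2 to 3 weeks after sowing, plants were sprayed with WP or EC formulations plus 0.5% additive at 600 l water/ha, 320 g/ha or below. Damage was scored visually about 3 weeks later versus untreated controls (0–100%).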

Glycine max (GLXMA) = experiment: Post-emergence effects on crop plants, section F (Table F4); conditions: for post-emergence activity against GLXMA in %: crop plant damage
Summary of the method: as §3

[4] = system: Alopecurus myosuroides (ALOMY); experiment: Herbicidal pre-emergence action, section A (Table A2); conditions: application rate 1280 g/ha; visual grading after ca. 3 weeks vs untreated controls
Summary of the method: (§4)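 Percent herbicidal effect relative to untreated plants (0% = as control, 100% = died off) scored visually about 3 weeks after treatment. Compounds formulated as WP or EC were sprayed at 600 L/ha with 0.5% additive onto covering soil of freshly sown sandy-loam pots, then kept under greenhouse conditions.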

[5] = system: Matricaria inodora (MATIN); experiment: Herbicidal pre-emergence action, section A (Table A6); conditions: visual grading after ca. 3 weeks vs untreated controls
Summary of the method: as §4

Setaria viridis (SETVI) [6] = experiment: Herbicidal pre-emergence action, section A (Table A8)
Summary of the method: as §4

[7] = system: Amaranthus retroflexus (AMARE); experiment: Herbicidal pre-emergence action, section A (Table A11)
Summary of the method: as §4

[8] = system: Digitaria sanguinalis (DIGSA); experiment: Herbicidal pre-emergence action, section A (Table A12)
Summary of the method: as §4

[9] = system: Alopecurus myosuroides (ALOMY); experiment: Herbicidal post-emergence action, section E (Table E2); conditions: application rate 320 g/ha; assessed visually after ca. 3 weeks
Description: as §2

[10] = system: Echinochloa crus-galli (ECHCG); experiment: Herbicidal post-emergence action, section E (Table E5); conditions: application rate 320 g/ha, visual assessment ca. 3 weeks after spraying
Description: as §2

## CC(C)C(=O)N1C[S+]([O-])c2cc(Br)c(-c3ccccc3)nc21 (stereo not shown) [Example I-067]
[1]; Echinochloa crus-galli, pre-emergence, 504 h, application rate 80 g/ha, read-out: pre-emergence activity against ECHCG in %
  pest or weed control at 80 g/ha: 90%
Lolium rigidum (LOLRI)
  pest or weed control at 320 g/ha: 80%
Setaria viridis (SETVI) [2]; application rate 320 g/ha
  pest or weed control at 320 g/ha: 100%
[3]
  pest or weed control at 320 g/ha: 80%
Zea mays (ZEAMX)
  percent crop plant damage (phytotoxicity) on Zea mays, post-emergence at 320 g/ha: 0%
Glycine max (GLXMA); Glycine max, 504 h, application rate 320 g/ha, read-out: post-emergence activity against GLXMA in %
  percent crop plant damage at 320 g/ha: 10%

## COC(=O)CCC(=O)N1CSc2cc(Cl)c(-c3ccccc3F)nc21 [Example I-003]
[4]
  pre-emergence activity against ALOMY in %: 100%
[5]; application rate 320 g/ha
  pre-emergence activity against MATIN in %: 90%
Setaria viridis (SETVI) [6]; application rate 320 g/ha
  pre-emergence activity against SETVI in %: 100%
[7]; application rate 1280 g/ha
  pre-emergence activity against AMARE in %: 90%
[8]; application rate 1280 g/ha
  pre-emergence activity against DIGSA in %: 100%
[1]
  pre-emergence activity against ECHCG in %: 80%
Setaria viridis (SETVI) [2]; application rate 320 g/ha
  pre-emergence activity against SETVI in %: 100%
[9]
  post-emergence activity against ALOMY in %: 80%
[10]
  post-emergence activity against ECHCG in %: 80%
Zea mays (ZEAMX)
  post-emergence activity against ZEAMX in %: 0%
Glycine max (GLXMA); application rate 80 g/ha
  post-emergence activity against GLXMA in %: 0%

## CCc1ccccc1-c1nc2c(cc1C)[S+]([O-])CN2 (stereo not shown) [Example I-047]
[5]; Tripleurospermum inodorum, pre-emergence, 504 h, application rate 1280 g/ha, read-out: pre-emergence activity against MATIN in %
  pest or weed control at 1280 g/ha: 90%
Setaria viridis (SETVI) [6]; Setaria viridis, 504 h, application rate 1280 g/ha, read-out: pre-emergence activity against SETVI in %
  pest or weed control at 1280 g/ha: 100%
[7]; Amaranthus retroflexus, 504 h, application rate 1280 g/ha, read-out: pre-emergence activity against AMARE in %
  pest or weed control at 1280 g/ha: 90%
[8]; Digitaria sanguinalis, 504 h, application rate 1280 g/ha, read-out: pre-emergence activity against DIGSA in %
  pest or weed control at 1280 g/ha: 100%
Lolium rigidum (LOLRI)
  pest or weed control at 320 g/ha: 100%
Setaria viridis (SETVI) [2]; application rate 320 g/ha
  pest or weed control at 320 g/ha: 100%
Zea mays (ZEAMX)
  percent crop plant damage (phytotoxicity) on Zea mays, post-emergence at 320 g/ha: 0%
Glycine max (GLXMA); Glycine max, 504 h, application rate 80 g/ha, read-out: post-emergence activity against GLXMA in %
  percent crop plant damage at 80 g/ha: 0%

## BN1CSc2cc(Br)c(-c3ccccc3C)nc21 [Example I-011]
Setaria viridis (SETVI) [6]; application rate 1280 g/ha
  pre-emergence activity against SETVI in %: 90%
[7]; application rate 1280 g/ha
  pre-emergence activity against AMARE in %: 90%
[1]
  pre-emergence activity against ECHCG in %: 100%
Lolium rigidum (LOLRI)
  pre-emergence activity against LOLRI in %: 100%
Setaria viridis (SETVI) [2]; application rate 80 g/ha
  pre-emergence activity against SETVI in %: 100%
Zea mays (ZEAMX)
  post-emergence activity against ZEAMX in %: 0%

## Cc1cc2c(nc1-c1cccc(C)c1F)NCS2 [Example I-113]
Setaria viridis (SETVI) [6]; application rate 320 g/ha
  pre-emergence activity against SETVI in %: 100%
[7]; application rate 320 g/ha
  pre-emergence activity against AMARE in %: 90%
[8]; application rate 320 g/ha
  pre-emergence activity against DIGSA in %: 100%
[1]
  pre-emergence activity against ECHCG in %: 100%
Lolium rigidum (LOLRI)
  pre-emergence activity against LOLRI in %: 90%
Setaria viridis (SETVI) [2]; application rate 320 g/ha
  pre-emergence activity against SETVI in %: 100%
[10]
  post-emergence activity against ECHCG in %: 80%
Zea mays (ZEAMX)
  post-emergence activity against ZEAMX in %: 0%
Glycine max (GLXMA); application rate 80 g/ha
  post-emergence activity against GLXMA in %: 0%

Reference: patent US20240381872A1, “SUBSTITUTED 2,3-DIHYDRO[1,3]THIAZOLO[4,5-B]PYRIDINES, SALTS THEREOF AND THEIR USE AS HERBICIDALLY ACTIVE SUBSTANCES” (BAYER AKTIENGESELLSCHAFT, priority 2021, published 2024)
